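The compound was tested at five concentrations on cells cultured in 96-well plates, with a 48-hour exposure period. GI50 is the concentration that inhibits growth by half. TGI: total growth inhibition.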
Assays:
Experiment in all cases: NCI-60 cell line screen, 48 h
786-0 renal = tested on: 786-0 renal
A498 renal = tested on: A498 renal
A549 NSCLC = tested on: A549 NSCLC
ACHN renal = tested on: ACHN renal
BT-549 breast = tested on: BT-549 breast
CAKI-1 renal = tested on: CAKI-1 renal
CCRF-CEM leukemia = tested on: CCRF-CEM leukemia
COLO 205 colon = tested on: COLO 205 colon
DU-145 prostate = tested on: DU-145 prostate
EKVX NSCLC = tested on: EKVX NSCLC
HCC-2998 colon = tested on: HCC-2998 colon
HCT-116 colon = tested on: HCT-116 colon
HCT-15 colon = tested on: HCT-15 colon
HL-60(TB) leukemia = tested on: HL-60(TB) leukemia
HOP-62 NSCLC = tested on: HOP-62 NSCLC
HS 578T breast = tested on: HS 578T breast
HT29 colon = tested on: HT29 colon
IGROV1 ovarian = tested on: IGROV1 ovarian
K-562 leukemia = tested on: K-562 leukemia
KM12 colon = tested on: KM12 colon
LOX IMVI melanoma = tested on: LOX IMVI melanoma
M14 melanoma = tested on: M14 melanoma
MALME-3M melanoma = tested on: MALME-3M melanoma
MCF7 breast = tested on: MCF7 breast
MDA-MB-231 breast = tested on: MDA-MB-231 breast
MDA-MB-435 = tested on: MDA-MB-435
MOLT-4 leukemia = tested on: MOLT-4 leukemia
NCI-H226 lung = tested on: NCI-H226 lung
NCI-H23 lung = tested on: NCI-H23 lung
NCI-H460 lung = tested on: NCI-H460 lung
NCI-H522 lung = tested on: NCI-H522 lung
NCI/ADR-RES ovarian = tested on: NCI/ADR-RES ovarian
OVCAR-3 ovarian = tested on: OVCAR-3 ovarian
OVCAR-4 ovarian = tested on: OVCAR-4 ovarian
OVCAR-5 ovarian = tested on: OVCAR-5 ovarian
OVCAR-8 ovarian = tested on: OVCAR-8 ovarian
PC-3 prostate = tested on: PC-3 prostate
RPMI-8226 leukemia = tested on: RPMI-8226 leukemia
RXF 393 renal = tested on: RXF 393 renal
SF-268 CNS = tested on: SF-268 CNS
SF-295 CNS = tested on: SF-295 CNS
SF-539 CNS = tested on: SF-539 CNS
SK-MEL-2 melanoma = tested on: SK-MEL-2 melanoma
SK-MEL-28 melanoma = tested on: SK-MEL-28 melanoma
SK-MEL-5 melanoma = tested on: SK-MEL-5 melanoma
SK-OV-3 ovarian = tested on: SK-OV-3 ovarian
SN12C renal = tested on: SN12C renal
SNB-19 CNS = tested on: SNB-19 CNS
SNB-75 CNS = tested on: SNB-75 CNS
SR leukemia = tested on: SR leukemia
SW-620 colon = tested on: SW-620 colon
T-47D breast = tested on: T-47D breast
TK-10 renal = tested on: TK-10 renal
U251 CNS = tested on: U251 CNS
UACC-257 melanoma = tested on: UACC-257 melanoma
UACC-62 melanoma = tested on: UACC-62 melanoma
UO-31 renal = tested on: UO-31 renal

SMILES: CN1CCN(Cc2ccc(NC(=O)c3cncc(C#Cc4cnc5ccc(N6CCOCC6)nn45)c3)cc2C(F)(F)F)CC1
- GI50 (786-0 renal): 144 nM
- TGI (786-0 renal): 433 nM
- GI50 (A498 renal): 97.5 nM
- TGI (A498 renal): 189 nM
- GI50 (A549 NSCLC): 121 nM
- TGI (A549 NSCLC): 555 nM
- GI50 (ACHN renal): 131 nM
- TGI (ACHN renal): 510 nM
- GI50 (BT-549 breast): 259 nM
- TGI (BT-549 breast): 763 nM
- GI50 (CAKI-1 renal): 51.9 nM
- TGI (CAKI-1 renal): 174 nM
- GI50 (CCRF-CEM leukemia): 125 nM
- TGI (CCRF-CEM leukemia): 5980 nM
- GI50 (COLO 205 colon): 53.6 nM
- TGI (COLO 205 colon): 129 nM
- GI50 (DU-145 prostate): 93.6 nM
- TGI (DU-145 prostate): 398 nM
- GI50 (EKVX NSCLC): 101 nM
- TGI (EKVX NSCLC): 564 nM
- GI50 (HCC-2998 colon): 130 nM
- TGI (HCC-2998 colon): 474 nM
- GI50 (HCT-116 colon): 26.3 nM
- TGI (HCT-116 colon): 342 nM
- GI50 (HCT-15 colon): 112 nM
- TGI (HCT-15 colon): 375 nM
- GI50 (HL-60(TB) leukemia): 23.9 nM
- TGI (HL-60(TB) leukemia): 224 nM
- GI50 (HOP-62 NSCLC): 100 nM
- TGI (HOP-62 NSCLC): 328 nM
- GI50 (HS 578T breast): 85.3 nM
- TGI (HS 578T breast): 353 nM
- GI50 (HT29 colon): 31.3 nM
- TGI (HT29 colon): 392 nM
- GI50 (IGROV1 ovarian): 46.8 nM
- TGI (IGROV1 ovarian): 430 nM
- GI50 (K-562 leukemia): 5 nM
- TGI (K-562 leukemia): 1900 nM
- GI50 (KM12 colon): 5 nM
- TGI (KM12 colon): 243 nM
- GI50 (LOX IMVI melanoma): 59.3 nM
- TGI (LOX IMVI melanoma): 142 nM
- GI50 (M14 melanoma): 50.6 nM
- TGI (M14 melanoma): 122 nM
- GI50 (MALME-3M melanoma): 37.2 nM
- TGI (MALME-3M melanoma): 153 nM
- GI50 (MCF7 breast): 26.9 nM
- TGI (MCF7 breast): 442 nM
- GI50 (MDA-MB-231 breast): 33 nM
- TGI (MDA-MB-231 breast): 204 nM
- GI50 (MDA-MB-435): 53.3 nM
- TGI (MDA-MB-435): 231 nM
- GI50 (MOLT-4 leukemia): 95.8 nM
- TGI (MOLT-4 leukemia): 1460 nM
- GI50 (NCI-H226 lung): 23.9 nM
- TGI (NCI-H226 lung): 320 nM
- GI50 (NCI-H23 lung): 79.6 nM
- TGI (NCI-H23 lung): 325 nM
- GI50 (NCI-H460 lung): 84.5 nM
- TGI (NCI-H460 lung): 254 nM
- GI50 (NCI-H522 lung): 68 nM
- TGI (NCI-H522 lung): 161 nM
- GI50 (NCI/ADR-RES ovarian): 814 nM
- TGI (NCI/ADR-RES ovarian): 3750 nM
- GI50 (OVCAR-3 ovarian): 99.4 nM
- TGI (OVCAR-3 ovarian): 407 nM
- GI50 (OVCAR-4 ovarian): 99.1 nM
- TGI (OVCAR-4 ovarian): 543 nM
- GI50 (OVCAR-5 ovarian): 85.8 nM
- TGI (OVCAR-5 ovarian): 548 nM
- GI50 (OVCAR-8 ovarian): 134 nM
- TGI (OVCAR-8 ovarian): 541 nM
- GI50 (PC-3 prostate): 145 nM
- TGI (PC-3 prostate): 1040 nM
- GI50 (RPMI-8226 leukemia): 153 nM
- TGI (RPMI-8226 leukemia): 553 nM
- GI50 (RXF 393 renal): 78.6 nM
- TGI (RXF 393 renal): 175 nM
- GI50 (SF-268 CNS): 82.3 nM
- TGI (SF-268 CNS): 218 nM
- GI50 (SF-295 CNS): 140 nM
- TGI (SF-295 CNS): 686 nM
- GI50 (SF-539 CNS): 60 nM
- TGI (SF-539 CNS): 205 nM
- GI50 (SK-MEL-2 melanoma): 68 nM
- TGI (SK-MEL-2 melanoma): 144 nM
- GI50 (SK-MEL-28 melanoma): 122 nM
- TGI (SK-MEL-28 melanoma): 433 nM
- GI50 (SK-MEL-5 melanoma): 225 nM
- TGI (SK-MEL-5 melanoma): 814 nM
- GI50 (SK-OV-3 ovarian): 144 nM
- TGI (SK-OV-3 ovarian): 405 nM
- GI50 (SN12C renal): 49.5 nM
- TGI (SN12C renal): 300 nM
- GI50 (SNB-19 CNS): 163 nM
- TGI (SNB-19 CNS): 686 nM
- GI50 (SNB-75 CNS): 47.7 nM
- TGI (SNB-75 CNS): 155 nM
- GI50 (SR leukemia): 97.2 nM
- TGI (SR leukemia): 367 nM
- GI50 (SW-620 colon): 49.7 nM
- TGI (SW-620 colon): 378 nM
- GI50 (T-47D breast): 199 nM
- TGI (T-47D breast): 2620 nM
- GI50 (TK-10 renal): 79.9 nM
- TGI (TK-10 renal): 229 nM
- GI50 (U251 CNS): 141 nM
- TGI (U251 CNS): 558 nM
- GI50 (UACC-257 melanoma): 160 nM
- TGI (UACC-257 melanoma): 936 nM
- GI50 (UACC-62 melanoma): 86.3 nM
- TGI (UACC-62 melanoma): 419 nM
- GI50 (UO-31 renal): 135 nM
- TGI (UO-31 renal): 359 nM

From PubChem BioAssay (NCI)
